Measured values published in patent US20240376084A1, “INHIBITORS OF ALPHA-HEMOLYSIN OF STAPHYLOCOCCUS AUREUS” (Helmholtz-Zentrum Fur Infektionsforschung GmbH, priority 2021, published 2024).

Key:
[1] = target: S. aureus Alpha hemolysin (Staphylococcus aureus, UniProt P09616); assay: cell-based; settings: A549-LDH Assay activity
[2] = target: hemolysin alpha from Staphylococcus aureus (Staphylococcus aureus, UniProt P09616); assay: cell-based
Sequence of hemolysin alpha from Staphylococcus aureus (P09616 27-319 limits assumed): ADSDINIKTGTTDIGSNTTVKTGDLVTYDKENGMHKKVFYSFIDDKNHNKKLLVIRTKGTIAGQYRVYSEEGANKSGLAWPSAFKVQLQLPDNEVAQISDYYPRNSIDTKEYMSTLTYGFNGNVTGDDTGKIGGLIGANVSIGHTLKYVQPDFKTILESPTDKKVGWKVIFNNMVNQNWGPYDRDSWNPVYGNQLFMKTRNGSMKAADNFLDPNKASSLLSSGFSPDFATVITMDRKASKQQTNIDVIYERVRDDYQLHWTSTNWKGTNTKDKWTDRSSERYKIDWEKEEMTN

Sequence of S. aureus Alpha hemolysin (P09616 27-319 limits assumed): as above

Row | Structure (SMILES) | EC50 [1] [µM] | EC50 [2] [µM]
1 | Cc1cc2[nH]c(=O)c(=O)[nH]c2cc1S(=O)(=O)Nc1ccc(-c2ccc3cc[nH]c3c2)c(Cl)c1 [Compound 271, N-[3-chloro-4-(1H-indol-6-yl)phenyl]-7-methyl-2,3-dioxo-1,4-dihydroquinoxaline-6-sulfonamide] | < 0.03 | < 0.03
2 | Cc1nc2cc(-c3ccc(NS(=O)(=O)c4cc5[nH]c(=O)c(=O)[nH]c5cc4C)cc3Cl)ccc2o1 [Compound 272, N-[3-chloro-4-(2-methyl-1,3-benzoxazol-5-yl)phenyl]-7-methyl-2,3-dioxo-1,4-dihydroquinoxaline-6-sulfonamide] | < 0.03 | < 0.03
3 | Cc1cc2[nH]c(=O)c(=O)[nH]c2cc1S(=O)(=O)Nc1ccc(-c2ccc3[nH]ncc3c2)c(Cl)c1 [Compound 273, N-[3-chloro-4-(1H-indazol-5-yl)phenyl]-7-methyl-2,3-dioxo-1,4-dihydroquinoxaline-6-sulfonamide] | 0.1 to 1 | 0.03 to 0.1
4 | Cc1cc2[nH]c(=O)c(=O)[nH]c2cc1S(=O)(=O)Nc1ccc(C2=CCCCC2)c(Cl)c1 [Compound 274, N-[3-chloro-4-(cyclohexen-1-yl)phenyl]-7-methyl-2,3-dioxo-1,4-dihydroquinoxaline-6-sulfonamide] | 0.03 to 0.1 | 0.03 to 0.1
5 | Cc1cc2[nH]c(=O)c(=O)[nH]c2cc1S(=O)(=O)Nc1ccc(-c2ccc(C(F)(F)F)nc2)c(Cl)c1 [Compound 275, N-[3-chloro-4-[6-(trifluoromethyl)-3-pyridyl]phenyl]-7-methyl-2,3-dioxo-1,4-dihydroquinoxaline-6-sulfonamide] | 1 to 6 | 0.1 to 1
6 | O=c1[nH]c2cc(OCC(F)(F)F)c(S(=O)(=O)Nc3ccc(OC(F)(F)F)cc3)cc2[nH]c1=O [Compound 276, 2,3-dioxo-7-(2,2,2-trifluoroethoxy)-N-[4-(trifluoromethoxy)phenyl]-1,4-dihydroquinoxaline-6-sulfonamide] | < 0.03 | 0.03 to 0.1
7 | Cc1cc2[nH]c(=O)c(=O)[nH]c2cc1S(=O)(=O)Nc1ccc(-c2ccc(OC(F)(F)F)cc2)c(Cl)c1 [Compound 277, N-[3-chloro-4-[4-(trifluoromethoxy)phenyl]phenyl]-7-methyl-2,3-dioxo-1,4-dihydroquinoxaline-6-sulfonamide] | 0.1 to 1 | 0.1 to 1
8 | CCOc1cc2[nH]c(=O)c(=O)[nH]c2cc1S(=O)(=O)Nc1ccc(OC(F)(F)F)cc1 [Compound 278, 7-ethoxy-2,3-dioxo-N-[4-(trifluoromethoxy)phenyl]-1,4-dihydroquinoxaline-6-sulfonamide] | < 0.03 | 0.1 to 1
9 | Cc1cc2[nH]c(=O)c(=O)[nH]c2cc1S(=O)(=O)Nc1cnc(-c2cncc(Cl)c2)c(Cl)c1 [Compound 279, N-[5-chloro-6-(5-chloro-3-pyridyl)-3-pyridyl]-7-methyl-2,3-dioxo-1,4-dihydroquinoxaline-6-sulfonamide] | 0.1 to 1 | 0.1 to 1
10 | Cc1cc2[nH]c(=O)c(=O)[nH]c2cc1S(=O)(=O)Nc1ccc(-c2cc[nH]c(=O)c2)c(Cl)c1 [Compound 280, N-[3-chloro-4-(2-oxo-1H-pyridin-4-yl)phenyl]-7-methyl-2,3-dioxo-1,4-dihydroquinoxaline-6-sulfonamide] | 0.1 to 1 | 1 to 3.5
11 | O=c1[nH]c2cc(NCCO)c(S(=O)(=O)Nc3ccc(OC(F)(F)F)cc3)cc2[nH]c1=O [Compound 281, 7-(2-hydroxyethylamino)-2,3-dioxo-N-[4-(trifluoromethoxy)phenyl]-1,4-dihydroquinoxaline-6-sulfonamide] | < 0.03 | < 0.03
12 | Cc1cc2[nH]c(=O)c(=O)[nH]c2cc1S(=O)(=O)Nc1ccc(-c2cc(CO)ccc2F)c(Cl)c1 [Compound 282, N-[3-chloro-4-[2-fluoro-5-(hydroxymethyl)phenyl]phenyl]-7-methyl-2,3-dioxo-1,4-dihydroquinoxaline-6-sulfonamide] | 0.1 to 1 | 0.03 to 0.1
13 | Cc1cc2[nH]c(=O)c(=O)[nH]c2cc1S(=O)(=O)Nc1ccc(-c2ccc3c(c2)ncn3C)c(Cl)c1 [Compound 283, N-[3-chloro-4-(1-methylbenzimidazol-5-yl)phenyl]-7-methyl-2,3-dioxo-1,4-dihydroquinoxaline-6-sulfonamide] | 0.1 to 1 | 0.1 to 1
14 | Cc1cc2[nH]c(=O)c(=O)[nH]c2cc1S(=O)(=O)Nc1ccc(C2CCCCC2)c(Cl)c1 [Compound 284, N-(3-chloro-4-cyclohexyl-phenyl)-7-methyl-2,3-dioxo-1,4-dihydroquinoxaline-6-sulfonamide] | 0.1 to 1 | 0.03 to 0.1
15 | Cc1cc2[nH]c(=O)c(=O)[nH]c2cc1S(=O)(=O)Nc1ccc(-n2ccnc2)c(Cl)c1 [Compound 285, N-(3-chloro-4-imidazol-1-yl-phenyl)-7-methyl-2,3-dioxo-1,4-dihydroquinoxaline-6-sulfonamide] | 0.1 to 1 | 0.1 to 1
16 | Cc1ccc(-c2ccc(NS(=O)(=O)c3cc4[nH]c(=O)c(=O)[nH]c4cc3C)cc2Cl)cc1Cl [Compound 286, N-[3-chloro-4-(3-chloro-4-methyl-phenyl)phenyl]-7-methyl-2,3-dioxo-1,4-dihydroquinoxaline-6-sulfonamide] | 0.1 to 1 | 0.03 to 0.1

Row | Structure (SMILES) | EC50 [1] [µM] | EC50 [2] [µM]
17 | Cc1cc2[nH]c(=O)c(=O)[nH]c2cc1S(=O)(=O)Nc1ccc(-c2ccc3c(c2)OC(F)(F)O3)c(Cl)c1 [Compound 287, N-[3-chloro-4-(2,2-difluoro-1,3-benzodioxol-5-yl)phenyl]-7-methyl-2,3-dioxo-1,4-dihydroquinoxaline-6-sulfonamide] | 0.03 to 0.1 | 0.03 to 0.1
18 | Cc1cc2[nH]c(=O)c(=O)[nH]c2cc1S(=O)(=O)Nc1ccc(-c2ccc(N(C)C)cc2)c(Cl)c1 [Compound 288, N-[3-chloro-4-[4-(dimethylamino)phenyl]phenyl]-7-methyl-2,3-dioxo-1,4-dihydroquinoxaline-6-sulfonamide] | 1 to 6 | 0.1 to 1
19 | COc1ccc(-c2ccc(NS(=O)(=O)c3cc4[nH]c(=O)c(=O)[nH]c4cc3C)cc2Cl)cc1C#N [Compound 289, N-[3-chloro-4-(3-cyano-4-methoxy-phenyl)phenyl]-7-methyl-2,3-dioxo-1,4-dihydroquinoxaline-6-sulfonamide] | 0.1 to 1 | 0.03 to 0.1
20 | Cc1cc2[nH]c(=O)c(=O)[nH]c2cc1S(=O)(=O)Nc1ccc(-c2csc(C#N)c2)c(Cl)c1 [Compound 290, N-[3-chloro-4-(5-cyano-3-thienyl)phenyl]-7-methyl-2,3-dioxo-1,4-dihydroquinoxaline-6-sulfonamide] | 0.03 to 0.1 | < 0.03
21 | Cc1cc2[nH]c(=O)c(=O)[nH]c2cc1S(=O)(=O)Nc1ccc(-c2ccc(OC(C)C)nc2)c(Cl)c1 [Compound 291, N-[3-chloro-4-(6-isopropoxy-3-pyridyl)phenyl]-7-methyl-2,3-dioxo-1,4-dihydroquinoxaline-6-sulfonamide] | 0.1 to 1 | 0.1 to 1
22 | Cc1cc2[nH]c(=O)c(=O)[nH]c2cc1S(=O)(=O)Nc1ccc(-n2ccnc2)cc1 [Compound 292, N-(4-imidazol-1-ylphenyl)-7-methyl-2,3-dioxo-1,4-dihydroquinoxaline-6-sulfonamide] | 1 to 6 | 1 to 3.5
23 | CCO/C=C/c1ccc(NS(=O)(=O)c2cc3[nH]c(=O)c(=O)[nH]c3cc2C)cc1Cl [Compound 293, N-[3-chloro-4-[(E)-2-ethoxyvinyl]phenyl]-7-methyl-2,3-dioxo-1,4-dihydroquinoxaline-6-sulfonamide] | 1 to 6 | 0.1 to 1
24 | Cc1cc2[nH]c(=O)c(=O)[nH]c2cc1S(=O)(=O)Nc1ccc(-c2ccc3[nH]c(=O)[nH]c3c2)c(Cl)c1 [Compound 294, N-[3-chloro-4-(2-oxo-1,3-dihydrobenzimidazol-5-yl)phenyl]-7-methyl-2,3-dioxo-1,4-dihydroquinoxaline-6-sulfonamide] | 0.1 to 1 | 0.1 to 1
25 | Cc1cc2[nH]c(=O)c(=O)[nH]c2cc1S(=O)(=O)Nc1ccc(-c2cc(F)ccc2F)c(Cl)c1 [Compound 295, N-[3-chloro-4-(2,5-difluorophenyl)phenyl]-7-methyl-2,3-dioxo-1,4-dihydroquinoxaline-6-sulfonamide] | 0.1 to 1 | 0.03 to 0.1
26 | CC(C)=Cc1ccc(NS(=O)(=O)c2cc3[nH]c(=O)c(=O)[nH]c3cc2C)cc1Cl [Compound 296, N-[3-chloro-4-(2-methylprop-1-enyl)phenyl]-7-methyl-2,3-dioxo-1,4-dihydroquinoxaline-6-sulfonamide] | 0.03 to 0.1 | 0.03 to 0.1
27 | Cc1cc2[nH]c(=O)c(=O)[nH]c2cc1S(=O)(=O)Nc1ccc(C2=CCOCC2)cc1 [Compound 297, N-[4-(3,6-dihydro-2H-pyran-4-yl)phenyl]-7-methyl-2,3-dioxo-1,4-dihydroquinoxaline-6-sulfonamide] | 0.1 to 1 | 0.1 to 1
28 | Cc1cc2[nH]c(=O)c(=O)[nH]c2cc1S(=O)(=O)Nc1ccc(-c2ccc(C#N)cc2)c(Br)c1 [Compound 298, N-[3-bromo-4-(4-cyanophenyl)phenyl]-7-methyl-2,3-dioxo-1,4-dihydroquinoxaline-6-sulfonamide] | 0.03 to 0.1 | < 0.03
29 | Cc1cc2[nH]c(=O)c(=O)[nH]c2cc1S(=O)(=O)Nc1ccc(C2=CCCCC2)c(Br)c1 [Compound 299, N-[3-bromo-4-(cyclohexen-1-yl)phenyl]-7-methyl-2,3-dioxo-1,4-dihydroquinoxaline-6-sulfonamide] | 0.03 to 0.1 | 0.03 to 0.1
30 | C#Cc1cc(NS(=O)(=O)c2cc3[nH]c(=O)c(=O)[nH]c3cc2C)ccc1-c1ccc(OC)c(F)c1 [Compound 300, N-[3-ethynyl-4-(3-fluoro-4-methoxy-phenyl)phenyl]-7-methyl-2,3-dioxo-1,4-dihydroquinoxaline-6-sulfonamide] | < 0.03 | < 0.03
31 | C#Cc1cc(NS(=O)(=O)c2cc3[nH]c(=O)c(=O)[nH]c3cc2C)ccc1-c1ccc2cc[nH]c2c1 [Compound 301, N-[3-ethynyl-4-(1H-indol-6-yl)phenyl]-7-methyl-2,3-dioxo-1,4-dihydroquinoxaline-6-sulfonamide] | < 0.03 | < 0.03
